This note sets out measurements from patent publication US20050245399A1, “Pyrazole derivatives as herbicidal compositions containing them” (ISHIHARA SANGYO KAISHA, LTD., priority 2004, published 2005).

For the first assay, the system named is soybean (Glycine max Merr.), GLXMA. The assay can be described thus: Test Example 2 post-emergence (foliage treatment) herbicidal activity, GLXMA. The assay is classed as in vivo. The note with it: 63 g a.i./ha. The procedure, abridged:
(§1)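 A small sprayer delivered the diluted WP or EC formulation (500 L/ha water, 0.1% v/v spreader) over emerged seedlings in upland soil pots. Damage relative to untreated plants was graded visually from 0 to 100% three weeks or so later (days 20-23).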
As for `COc1c(Cl)cc(F)c(-c2nn(C)c(OC(F)F)c2Cl)c1NC(=O)OCCN(C)C` [Compound 1-66], the “growth controlling degree, GLXMA” value was determined as 60%.

A further assay concerns barnyardgrass (Echinochiloa oryzicola: ECHOR). The assay is described as follows: Test Example 3 water application herbicidal activity (paddy), ECHOR. Type of assay: in vivo. Particulars: 63 g a.i./ha, water application under submerged condition at 0.5 leaf stage, visually observed 14th day after application; 0 = untreated control, 100 = complete kill. An excerpt: (§2) Paddy field soil was put into a 1/1,000,000 ha pot and seeds of barnyardgrass (Echinochiloa oryzicola: ECHOR) and japanese bulrush (Scirpus juncoides: SCPJO) were sown and slightly covered with soil. Then the pot was left to stand still in a greenhouse in a state where the depth of flooding water was from 0.5 to 1 cm, and one day later, tubers of japanese ribbon wapato (Sagittaria pygmaea: SA GPY) were planted. Thereafter, the depth of flooding water was maintained at a level of from 3 to 4 cm, and when barnyardgrass and japanese bulrush reached a 0.5 leaf stage, an aqueous diluted solution of a wettable powder or emulsifiable concentrate having the compound of the present invention formulated in accordance with a usual formulation method, was uniformly applied under submerged condition by a pipette so that the dose of the active ingredient would be at a predetermined level. On the other hand, paddy filed soil was put into a 1/1,000,000 ha pot and puddled and leveled, and the depth of flooding water was from 3 to 4 cm. One day later, rice (Oryza sativa L.: ORYSA) of 2 leaf stage was transplanted in a depth of 3 cm. On the 4th day after the transplantation, the compound of the present invention was applied in the same manner as described above. On the 14th day after the application of the herbicide, the growth of barnyardgrass, japanese burlush and japanese ribbon wapato was visually observed and on the 21st day after the application of the herbicide, the growth of rice was visually observed, and the herbicidal effects were evaluated by growth controlling degrees (%) ranging from 0 (equivalent to the untreated control) to 100 (complete kill), whereby the results shown in Table 6, were obtained. Compound Nos. in Table 6 correspond to Compound Nos. in Table 1 and 2 given hereinbefore.
In the case of `COc1c(Cl)cc(F)c(-c2nn(C)c(OC(F)F)c2Cl)c1NC(=O)OCCN(C)C` [Compound 1-66], the “growth controlling degrees (%) ECHOR” value turned out to be 90%.

The next assay deals with barnyardgrass (Echinochloa crus-galli L.): ECHCG. The assay can be described thus: Test Example 1 pre-emergence herbicidal activity, ECHCG. Particulars: Rate 63 g a.i./ha, visually observed 20th to 23rd day after application. Type of assay: in vivo. The procedure, abridged: (§3)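 pots, upland field soil; sow; +1 d spray compound (WP or EC, a.i. at set dose, 500 L/ha water), pre-emergence; visual % growth control d20–23 (0 untreated, 100 complete kill).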
For the molecule `COc1c(Cl)cc(F)c(-c2nn(C)c(OC(F)F)c2Cl)c1NC(=O)OCCN(C)C` [Compound 1-66], the “Pre-emergence Herbicidal Activity ECHCG (growth controlling degree)” value amounted to 0%.

A further assay has as its system soybean (Glycine max Merr.): GLXMA. The assay is described as follows: Test Example 1 pre-emergence herbicidal activity, GLXMA. Type of assay: in vivo. Particulars: Rate 63 g a.i./ha, visually observed 20th to 23rd day after application. The procedure, abridged: as §3
With `COc1c(Cl)cc(F)c(-c2nn(C)c(OC(F)F)c2Cl)c1NC(=O)OCCN(C)C` [Compound 1-66], the “Pre-emergence Herbicidal Activity GLXMA (growth controlling degree)” value is 0%.

The next assay relates to corn (Zea mays L.), ZEAMX. The assay can be described thus: Test Example 2 post-emergence (foliage treatment) herbicidal activity, ZEAMX. The assay is classed as in vivo. Particulars: 63 g a.i./ha. The procedure, abridged:
as §1
For `COc1c(Cl)cc(F)c(-c2nn(C)c(OC(F)F)c2Cl)c1NC(=O)OCCN(C)C` [Compound 1-66], the “growth controlling degree, ZEAMX” value is 40%.

For another assay, the system named is crabgrass (Digitaria sanguinalis L.), DIGSA. The assay can be described thus: Test Example 2 post-emergence (foliage treatment) herbicidal activity, DIGSA. Particulars: 63 g a.i./ha. The assay is classed as in vivo. The procedure, abridged: (§4)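 Herbicide was applied to foliage of seedlings raised in upland field soil: redroot pigweed at 0.1-1.5 leaves, barnyardgrass at 1.1-2.1, crabgrass at 1.0-2.0, rice at 1.0-2. A predetermined active ingredient amount was carried in 500 L/ha water with 0.1% (v/v) spreader; control (%) was assessed by eye after 20-23 days.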
Take `COc1c(Cl)cc(F)c(-c2nn(C)c(OC(F)F)c2Cl)c1NC(=O)OCCN(C)C` [Compound 1-66]: the “growth controlling degree, DIGSP” value is 40%.

The next assay relates to wheat (Triticum aestivum L.), TRZAX. The assay can be described thus: Test Example 2 post-emergence (foliage treatment) herbicidal activity, TRZAX. The note with it: 63 g a.i./ha. Type of assay: in vivo. The procedure, abridged: as §1
On to `COc1c(Cl)cc(F)c(-c2nn(C)c(OC(F)F)c2Cl)c1NC(=O)OCCN(C)C` [Compound 1-66], for which the “growth controlling degree, TRZAX” value came to 20%.

The subject of a further assay is prickly sida (Sida spinosa L.), SIDSP. The assay can be described thus: Test Example 2 post-emergence (foliage treatment) herbicidal activity, SIDSP. Particulars: 63 g a.i./ha. The assay is classed as in vivo. The procedure, abridged: as §1
For `COc1c(Cl)cc(F)c(-c2nn(C)c(OC(F)F)c2Cl)c1NC(=O)OCCN(C)C` [Compound 1-66], the “growth controlling degree, SIDSP” value is recorded as 100%.

In a further assay the test system is velvetleaf (Abutilon theophrasti): ABUTH. The assay is described as follows: Test Example 1 pre-emergence herbicidal activity, ABUTH. The note with it: Rate 63 g a.i./ha, visually observed 20th to 23rd day after application. The assay is classed as in vivo. Summed up: as §3
Consider `COc1c(Cl)cc(F)c(-c2nn(C)c(OC(F)F)c2Cl)c1NC(=O)OCCN(C)C` [Compound 1-66], for which the “Pre-emergence Herbicidal Activity ABUTH (growth controlling degree)” value is 20%.

The test system of a further assay is corn (Zea mays L.): ZEAMX. The assay can be described thus: Test Example 1 pre-emergence herbicidal activity, ZEAMX. Particulars: Rate 63 g a.i./ha, visually observed 20th to 23rd day after application. Type of assay: in vivo. The procedure, abridged: as §3
Turning to `COc1c(Cl)cc(F)c(-c2nn(C)c(OC(F)F)c2Cl)c1NC(=O)OCCN(C)C` [Compound 1-66], the “Pre-emergence Herbicidal Activity ZEAMX (growth controlling degree)” value stood at 0%.

In another assay the test system is green foxtail (Setaria viridis L.): SETVI. The assay can be described thus: Test Example 1 pre-emergence herbicidal activity, SETVI. Particulars: Rate 63 g a.i./ha, visually observed 20th to 23rd day after application. The assay is classed as in vivo. The procedure, abridged:
as §3
For `COc1c(Cl)cc(F)c(-c2nn(C)c(OC(F)F)c2Cl)c1NC(=O)OCCN(C)C` [Compound 1-66], the “Pre-emergence Herbicidal Activity SETVI (growth controlling degree)” value stood at 10%.

Another assay has as its system barnyardgrass (Echinochloa crus-galli L.), ECHCG. The assay can be described thus: Test Example 2 post-emergence (foliage treatment) herbicidal activity, ECHCG. The assay is classed as in vivo. The note with it: 63 g a.i./ha. Summed up:
as §4
With `COc1c(Cl)cc(F)c(-c2nn(C)c(OC(F)F)c2Cl)c1NC(=O)OCCN(C)C` [Compound 1-66], the “growth controlling degree, ECHCO” value stood at 20%.

Another assay has as its system rice (Oryza sativa L.): ORYSA. The assay can be described thus: Test Example 1 pre-emergence herbicidal activity, ORYSA. The assay is classed as in vivo. Particulars: Rate 63 g a.i./ha, visually observed 20th to 23rd day after application. The procedure, abridged: as §3
`COc1c(Cl)cc(F)c(-c2nn(C)c(OC(F)F)c2Cl)c1NC(=O)OCCN(C)C` [Compound 1-66]: the “Pre-emergence Herbicidal Activity ORYSA (growth controlling degree)” value stood at 0%.

The subject of the next assay is japanese bulrush (Scirpus juncoides: SCPJO). The assay is described as follows: Test Example 3 water application herbicidal activity (paddy), SCPJO. Type of assay: in vivo. The note with it: 63 g a.i./ha, water application under submerged condition at 0.5 leaf stage, visually observed 14th day after application; 0 = untreated control, 100 = complete kill.
From the text: as §2
On to `COc1c(Cl)cc(F)c(-c2nn(C)c(OC(F)F)c2Cl)c1NC(=O)OCCN(C)C` [Compound 1-66], for which the “growth controlling degrees (%) SCPJO” value is 30%.

In a further assay the test system is japanese ribbon wapato (Sagittaria pygmaea: SA GPY). The assay is described as follows: Test Example 3 water application herbicidal activity (paddy), SAGPY. The assay is classed as in vivo. The note with it: 63 g a.i./ha, water application under submerged condition, tubers planted, visually observed 14th day after application; 0 = untreated control, 100 = complete kill.
From the text: as §2
On to `COc1c(Cl)cc(F)c(-c2nn(C)c(OC(F)F)c2Cl)c1NC(=O)OCCN(C)C` [Compound 1-66], for which the “growth controlling degrees (%) SAGPY” value was 0%.

In a further assay the test system is wheat (Triticum aestivum L.): TRZAX. The assay can be described thus: Test Example 1 pre-emergence herbicidal activity, TRZAX. The assay is classed as in vivo. The note with it: Rate 63 g a.i./ha, visually observed 20th to 23rd day after application. Summed up: as §3
On to `COc1c(Cl)cc(F)c(-c2nn(C)c(OC(F)F)c2Cl)c1NC(=O)OCCN(C)C` [Compound 1-66], for which the “Pre-emergence Herbicidal Activity TRZAX (growth controlling degree)” value worked out at 0%.

A further assay relates to velvetleaf (Abutilon theophrasti), ABUTH. The assay is described as follows: Test Example 2 post-emergence (foliage treatment) herbicidal activity, ABUTH. The note with it: 63 g a.i./ha. The assay is classed as in vivo. Summed up: as §1
With `COc1c(Cl)cc(F)c(-c2nn(C)c(OC(F)F)c2Cl)c1NC(=O)OCCN(C)C` [Compound 1-66], the “growth controlling degree, ABUTH” value is reported as 100%.

A further assay concerns green foxtail (Setaria viridis L.), SETVI. The assay is described as follows: Test Example 2 post-emergence (foliage treatment) herbicidal activity, SETVI. The note with it: 63 g a.i./ha. Type of assay: in vivo. Summed up: as §1
With `COc1c(Cl)cc(F)c(-c2nn(C)c(OC(F)F)c2Cl)c1NC(=O)OCCN(C)C` [Compound 1-66], the “growth controlling degree, SETVI” value is on record as 60%.

The subject of another assay is prickly sida (Sida spinosa L.): SEDSP. The assay is described as follows: Test Example 1 pre-emergence herbicidal activity, SIDSP. The assay is classed as in vivo. The note with it: Rate 63 g a.i./ha, visually observed 20th to 23rd day after application. Summed up: as §3
As for `COc1c(Cl)cc(F)c(-c2nn(C)c(OC(F)F)c2Cl)c1NC(=O)OCCN(C)C` [Compound 1-66], the “Pre-emergence Herbicidal Activity SIDSP (growth controlling degree)” value turned out to be 20%.

The test system of the next assay is rice (Oryza sativa L.), ORYSA. The assay is described as follows: Test Example 2 post-emergence (foliage treatment) herbicidal activity, ORYSA. Particulars: 63 g a.i./ha. Type of assay: in vivo. The procedure, abridged: as §4
As to `COc1c(Cl)cc(F)c(-c2nn(C)c(OC(F)F)c2Cl)c1NC(=O)OCCN(C)C` [Compound 1-66], the “growth controlling degree, ORYSA” value is reported as 50%.

A further assay deals with crabgrass (Digitaria sanguinalis L.): DIGSA. The assay is described as follows: Test Example 1 pre-emergence herbicidal activity, DIGSA. Particulars: Rate 63 g a.i./ha, visually observed 20th to 23rd day after application. Type of assay: in vivo. Summed up:
as §3
As for `COc1c(Cl)cc(F)c(-c2nn(C)c(OC(F)F)c2Cl)c1NC(=O)OCCN(C)C` [Compound 1-66], the “Pre-emergence Herbicidal Activity DIGSP (growth controlling degree)” value was 20%.
